Experimental data published in patent publication US8628961B2, “Small molecule antagonists of phosphatidylinositol-3,4,5-triphosphate (PIP3) and uses thereof” (Tufts University, priority 2010, dated 2014).

Legend:
[1] = molecular target: T1, PLC-δ PH domain (Homo sapiens (Human), UniProt P51178); assay: PH domain translocation assay (GFP fusion); format: cell-based
Protocol: Cells were transfected with the corresponding GFP-fusion vectors, serum starved overnight, and incubated with 100 μM PITs or PIT-1 is for 2 hr, followed by stimulation with 100 ng/ml PDGF or 250 ng/ml PMA for 5 min. The translocation was analyzed using fluorescent microscope and was quantitated by counting the number of cells with translocated PH domains in five random fields.

[2] = test system: U87MG cells; assay: Long-term colony formation; format: cell-based, human
[3] = test system: U87MG cells; assay: Cell death in U87MG cells overexpressing PH domain-deficient constitutively active Akt; format: cell-based, human
Protocol: To further confirm the mode of action of PIT-1 in the cells is directly related to the inhibition of PIP3/Akt PH domain interaction, induction of cell death in cells overexpressing constitutively active Akt lacking PH domain, but containing a membrane-targeting myristoylation signal, was tested. […] This is not unexpected, considering that another PIT-1 target, PDK1, regulates cell survival through both Akt-dependent and Akt-independent pathways.

[4] = test system: HUVEC; assay: Endothelial tube formation assay on Matrigel; format: cell-based, human; conditions: P>0.05
Protocol: The tube formation assay was performed in 96-well plates. Wells were pre-coated with 70 μl of the Matrigel basement membrane matrix (BD Biosciences) per well for 1 hr at 37° C. HUVEC were suspended in serum-free M199 medium and plated on Matrigel at a density of 2×10^4 cells per well. PIT-1 was added at indicated concentrations (3.125-100 μM). After an 8 hr incubation at 37° C., phase-contrast images of the endothelial tubes were obtained using a Nikon TE2000 microscope, and tube formation was assessed by counting the number of closed tubes in five random fields from each well.

[5] = test system: SUM159 cells; assay: Actin polymerization and ruffling/lamellipodia formation after PDGF; format: cell-based, human; conditions: SUM159, concentration-dependent
Protocol: In one set of experiments, the ability of PITs to inhibit actin polymerization and ruffling/lamellipodia formation was examined in SUM159 cells. Cells were serum starved and treated with PITs (25, 50 100 μM) or PIT-1 is (100 μM) for 8 hr, followed by PDGF (100 ng/ml) stimulation for 15 min. Cells were fixed and stained with TRITC-phalloidin to visualize actin fibers, followed by fluorescent microscopy analysis. The number of cells with ruffles/lamellipodia was counted in five random fields.

[6] = test system: SV40-transformed mouse adult lung fibroblasts; assay: Viability of Akt1-expressing versus Akt1-3 triple knockout fibroblasts; format: cell-based
Description: Shaughnessy J D (2008) Nature 454:172-3; Weinstein I G (2002) Science 297:63-4. Therefore, the possibility that PIT-1 may cause preferential cell death in the cells containing elevated PIP3 levels was examined. […] Li D M et al. (1998) Proc Natl Acad Sci USA 95:15406-11. […] Neshat M S et al. (2001) Proc Natl Acad Sci USA 98:10314-9.

[7] = molecular target: T1, PLC-δ PH domain; assay: FP PIP2/PLC-δ PH domain binding assay; conditions: FIG. 5
Protocol: FIG. 5 is a graph depicting specificity and concentration-dependent competitive inhibition of PIP3-PH domain interaction by PIT-1 and PIT-2. 15 nM TMR-conjugated PIP2 were incubated with 100 nM PLC-δ PH domain in the presence or absence of the indicated concentrations of PITs (0-200 μM) for 30 min, followed by FP measurement.
In order to identify compounds that disrupt the interaction between PIP3 and PH domains, a high-throughput fluorescence polarization (FP)-binding assay was developed using recombinant 1-123 amino acid N-terminal fragment of human Akt1 (also referred to herein simply as Akt), encompassing the PH domain (PH123 protein), and fluorescent NBD-labeled PIP3 molecule. The amino acid sequence of human Akt1 is publicly available as, for example, GenBank Accession No. NP_001014432.1 (SEQ ID NO:1), and the corresponding DNA sequence is publicly available as, for example, GenBank Accession No. NM_001014432. Briefly, 5 μM recombinant GST fusion proteins containing 1-123 a.a. N-terminal fragment of human Akt1 (PH 123) or 100 nM 441-551 a.a. region of human PDK1 were incubated with 15 nM TMR-labeled PIP3, PIP2, or PIP5 in buffer containing 50 mM Tris-HCl (pH 7.5), 150 mM NaCl, and 5 mM b-ME for 15 min at room temperature in the dark. FP values were determined using Wallac Victor 3 plate reader. […]

[8] = molecular target: R86A mutant of the PH domain (Homo sapiens (Human), UniProt P31749, R86A); assay: NMR HSQC binding analysis, mutant PH domain
R86A mutant of the PH domain, sequence (P31749 1-123 R86A): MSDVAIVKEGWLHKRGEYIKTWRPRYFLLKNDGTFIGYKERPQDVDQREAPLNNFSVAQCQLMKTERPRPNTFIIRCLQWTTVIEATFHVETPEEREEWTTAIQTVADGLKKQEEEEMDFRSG

T1 sequence (P51178 21-130): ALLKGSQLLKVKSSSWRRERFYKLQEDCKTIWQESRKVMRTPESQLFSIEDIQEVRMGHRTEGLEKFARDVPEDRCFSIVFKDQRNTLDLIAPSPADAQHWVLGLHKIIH

With `O=C(NC(=S)Nc1cc([N+](=O)[O-])cc(Cl)c1O)c1ccccc1` [PIT-1] the “cellular localization of PLC-δ PH domain” value [1] was “no inhibitory effect”, the “long-term colony formation by U87MG cells” value [2] was “suppressed long-term colony formation” and the “effect of overexpressed PH domain-deficient Akt on killing of U87MG cells” value [3] was “significantly protected U87MG cells from PIT-1 killing”. For the same compound, the “cell viability under tube formation conditions” value [4] was “No loss of cell viability”, the PDGF-induced membrane ruffling [5] was “efficiently inhibited” and the “loss of viability in Akt1-expressing versus Akt1-3 triple knockout fibroblasts” value [6] was “more pronounced (P<0.01)”. For the same compound, the “inhibition of interaction between PIP2 and PH domain of PLC-δ” value [7] was “failed to inhibit” and the “effect on R86A mutant PH domain (HSQC)” value [8] was “no effect”.
